Values after ≈ are worked out from the molar mass of the structure shown. Active and inactive are the calls of the source. The rule behind the calls is not given here.
Legend:
[1] = Antiinvasive activity in human in BLM cells assessed as reduction of amount of cells present on filter at 1 umol/L after 24 hrs by matrigel invasion assay (reference value: 100%); type: functional; design: scale not given: the % may be the effect or the level left
[2] = Protein binding in human plasma at 10 umol/L; type: ADME, cell-free; conditions: read-out: PPB (converted)
[3] = Cytotoxicity against human BLM cells assessed as reduction of mitochondrial activity at 0.01 to 1 umol/L after 24 hrs by MTT assay; type: cell-based
Mus musculus [4] = assay: Toxicity in Swiss nu/nu mouse assessed as histological anomalies in liver at 1.6 to 160 mg/kg, ip administered three times a week for two-week period measured on day 15; type: organism-based; conditions: in vivo
Mus musculus [5] = assay: Toxicity in Swiss nu/nu mouse assessed as macroscopic anomalies at 1.6 to 160 mg/kg, ip administered three times a week for two-week period measured on day 15; type: organism-based; conditions: in vivo
CYP3A4 = CYP3A4 (Homo sapiens, UniProt P08684); assay: Inhibition of CYP3A4 (unknown origin) at 10 umol/L; type: ADME
Tubulin (Sus scrofa) = Tubulin (Sus scrofa) (UniProt P02554+P02550); assay: Inhibition of porcine brain tubulin polymerization assessed as microtubule assembly at 1 umol/L after 15 mins by DAPI staining
MCF7/6 = assay: Inhibition of cell migration in human MCF7/6 cells at 0.01 to 10 umol/L after 24 hrs by wound scratch assay; type: functional, cell-based
[6] = Antimetastasis activity against human MCF7/6 cells xenografted in Swiss nu/nu mouse assessed as increase of survival time at 160 mg/kg, ip administered thrice a week relative to control; type: functional
Mus musculus [7] = assay: Toxicity in Swiss nu/nu mouse assessed as histological anomalies in spleen at 1.6 to 160 mg/kg, ip administered three times a week for two-week period measured on day 15; type: organism-based; conditions: in vivo
[8] = Aqueous solubility of the compound in simulated intestinal fluid at 200 umol/L; type: physicochemical
[9] = Toxicity in human HepG2 cells assessed as cell viability at 1 umol/L; type: cell-based; conditions: read-out: Activity
[10] = Antiinvasive activity in human in BLM cells assessed as reduction of amount of cells present on filter at 0.1 umol/L after 24 hrs by matrigel invasion assay (reference value: 100%); type: functional; design: scale not given: the % may be the effect or the level left
Mus musculus [11] = assay: Toxicity in Swiss nu/nu mouse assessed as hematological anomalies by measuring creatinine level at 16 mg/kg, ip administered three times a week for two-week period measured on day 15 (reference value: 0.29 +/- 0.02 mg/dL); type: organism-based; conditions: in vivo
[12] = Cytotoxicity against human MCF7/6 cells assessed as reduction of mitochondrial activity at 0.01 to 100 umol/L after 6 days by MTT assay; type: cell-based; conditions: mcf7/6, 144 h
Mus musculus [13] = assay: Toxicity in Swiss nu/nu mouse assessed as hematological anomalies by measuring AST level at 160 mg/kg, ip administered three times a week for two-week period measured on day 15 (reference value: 254.2 +/- 144.6 IU/L); type: organism-based; conditions: in vivo
[14] = Permeability across basolateral to apical side of human Caco2 cells assessed as compound recovery at 10 umol/L at pH 7.4; type: ADME, cell-based; conditions: Caco-2, pH 7.4, read-out: Drug recovery
Mus musculus [15] = assay: Toxicity in Swiss nu/nu mouse assessed as histological anomalies in kidney at 1.6 to 160 mg/kg, ip administered three times a week for two-week period measured on day 15; type: organism-based; conditions: in vivo
[16] = Permeability across apical to basolateral side of human Caco2 cells assessed as compound recovery at 10 umol/L at pH 7.4; type: ADME, cell-based; conditions: Caco-2, pH 7.4, read-out: Drug recovery
CYP2D6 = CYP2D6 (Homo sapiens, UniProt P10635); assay: Inhibition of CYP2D6 (unknown origin) at 10 umol/L; type: ADME
CYP1A2 = biological target: T1, CYP1A2 (Homo sapiens, UniProt P05177); assay: Inhibition of CYP1A2 (unknown origin) at 10 umol/L; type: ADME
T1 sequence (P05177 whole entry): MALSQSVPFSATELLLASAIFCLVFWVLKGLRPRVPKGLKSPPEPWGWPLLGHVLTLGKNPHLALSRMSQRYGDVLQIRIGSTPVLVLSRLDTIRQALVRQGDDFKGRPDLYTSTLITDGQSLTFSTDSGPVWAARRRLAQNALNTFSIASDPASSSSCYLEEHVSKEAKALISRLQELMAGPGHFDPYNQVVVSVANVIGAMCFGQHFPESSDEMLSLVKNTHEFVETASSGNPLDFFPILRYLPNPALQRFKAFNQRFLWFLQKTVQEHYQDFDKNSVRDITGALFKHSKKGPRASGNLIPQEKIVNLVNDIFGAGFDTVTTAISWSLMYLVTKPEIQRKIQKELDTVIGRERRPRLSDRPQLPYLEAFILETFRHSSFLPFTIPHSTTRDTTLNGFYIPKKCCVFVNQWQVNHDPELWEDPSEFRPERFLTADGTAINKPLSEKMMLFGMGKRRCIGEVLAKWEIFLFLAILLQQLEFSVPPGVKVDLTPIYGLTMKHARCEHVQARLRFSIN

MDA-MB-231 = assay: Cytotoxicity against human MDA-MB-231 cells expressing GFP assessed as reduction of mitochondrial activity at 0.01 to 100 umol/L after 6 days by MTT assay; type: cell-based; conditions: mda-mb-231, 144 h
Mus musculus [17] = assay: Toxicity in Swiss nu/nu mouse assessed as hematological anomalies by measuring creatinine level at 160 mg/kg, ip administered three times a week for two-week period measured on day 15 (reference value: 0.29 +/- 0.02 mg/dL); type: organism-based; conditions: in vivo
[18] = Toxicity in human HepG2 cells assessed as cell viability; type: cell-based; conditions: HepG2 cells
[19] = Antiinvasive activity in human in BLM cells assessed as reduction of amount of cells present on filter at 100 umol/L after 24 hrs by matrigel invasion assay (reference value: 100%); type: functional; design: scale not given: the % may be the effect or the level left
[20] = Permeability across basolateral to apical side of human Caco2 cells at 10 umol/L at pH 7.4; type: ADME, cell-based; conditions: Caco-2, pH 7.4, read-out: permeability
[21] = Intrinsic clearance in Sprague-Dawley rat liver microsomes at 0.1 umol/L; type: ADME; conditions: read-out: CLH
Mus musculus [22] = assay: Toxicity in Swiss nu/nu mouse assessed as hematological anomalies by measuring WBC count at 1.6 mg/kg, ip administered three times a week for two-week period measured on day 15 (reference value: 2420 +/- 782 /microL); type: organism-based; conditions: in vivo
SK-OV-3 [23] = assay: Antiinvasive activity in human in SKOV3 cells assessed as reduction of amount of cells present on filter at 10 umol/L after 24 hrs by matrigel invasion assay (reference value: 100%); type: functional; design: scale not given: the % may be the effect or the level left
SK-OV-3 [24] = assay: Antiinvasive activity in human in SKOV3 cells assessed as reduction of amount of cells present on filter at 0.1 umol/L after 24 hrs by matrigel invasion assay (reference value: 100%); type: functional; design: scale not given: the % may be the effect or the level left
hERG = hERG (Homo sapiens, UniProt Q12809); assay: Inhibition of human ERG assessed as reduction of tail current at 0.1 umol/L
Homo sapiens = species on record: Homo sapiens; assay: Displacement of [3H]-quinuclydinyl benzylate from muscarinic receptor (unknown origin) at 10 umol/L

Chain of hERG (Q12809 whole entry): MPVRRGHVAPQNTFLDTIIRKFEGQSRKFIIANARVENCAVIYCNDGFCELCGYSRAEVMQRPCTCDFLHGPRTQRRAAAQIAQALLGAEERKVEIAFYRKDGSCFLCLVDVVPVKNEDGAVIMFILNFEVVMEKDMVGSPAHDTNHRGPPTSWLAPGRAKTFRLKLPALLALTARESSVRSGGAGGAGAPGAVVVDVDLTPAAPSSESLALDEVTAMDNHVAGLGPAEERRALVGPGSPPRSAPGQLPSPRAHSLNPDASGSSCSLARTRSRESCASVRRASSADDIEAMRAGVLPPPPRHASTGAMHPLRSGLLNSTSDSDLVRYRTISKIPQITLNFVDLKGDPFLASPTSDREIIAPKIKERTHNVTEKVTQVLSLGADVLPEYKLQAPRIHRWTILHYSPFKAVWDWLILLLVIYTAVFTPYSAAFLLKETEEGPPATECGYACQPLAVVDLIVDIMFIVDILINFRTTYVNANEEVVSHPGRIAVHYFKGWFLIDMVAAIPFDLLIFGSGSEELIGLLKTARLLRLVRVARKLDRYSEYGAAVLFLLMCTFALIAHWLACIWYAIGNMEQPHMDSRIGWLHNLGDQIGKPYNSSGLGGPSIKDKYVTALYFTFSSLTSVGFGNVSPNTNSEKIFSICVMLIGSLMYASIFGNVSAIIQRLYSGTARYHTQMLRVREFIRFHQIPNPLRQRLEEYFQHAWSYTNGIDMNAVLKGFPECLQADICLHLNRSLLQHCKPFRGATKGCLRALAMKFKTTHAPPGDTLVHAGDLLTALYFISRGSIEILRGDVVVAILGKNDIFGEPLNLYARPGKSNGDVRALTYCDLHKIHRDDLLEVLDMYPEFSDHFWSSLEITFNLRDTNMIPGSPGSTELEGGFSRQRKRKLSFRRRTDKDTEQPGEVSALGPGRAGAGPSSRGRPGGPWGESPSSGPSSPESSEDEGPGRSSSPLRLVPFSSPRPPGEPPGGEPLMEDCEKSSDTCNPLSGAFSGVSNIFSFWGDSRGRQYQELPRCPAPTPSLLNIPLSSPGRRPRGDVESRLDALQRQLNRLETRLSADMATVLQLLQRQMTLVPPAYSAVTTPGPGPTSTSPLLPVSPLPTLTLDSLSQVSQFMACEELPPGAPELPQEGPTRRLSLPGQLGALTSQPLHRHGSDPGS
Chain of CYP2D6 (P10635 whole entry): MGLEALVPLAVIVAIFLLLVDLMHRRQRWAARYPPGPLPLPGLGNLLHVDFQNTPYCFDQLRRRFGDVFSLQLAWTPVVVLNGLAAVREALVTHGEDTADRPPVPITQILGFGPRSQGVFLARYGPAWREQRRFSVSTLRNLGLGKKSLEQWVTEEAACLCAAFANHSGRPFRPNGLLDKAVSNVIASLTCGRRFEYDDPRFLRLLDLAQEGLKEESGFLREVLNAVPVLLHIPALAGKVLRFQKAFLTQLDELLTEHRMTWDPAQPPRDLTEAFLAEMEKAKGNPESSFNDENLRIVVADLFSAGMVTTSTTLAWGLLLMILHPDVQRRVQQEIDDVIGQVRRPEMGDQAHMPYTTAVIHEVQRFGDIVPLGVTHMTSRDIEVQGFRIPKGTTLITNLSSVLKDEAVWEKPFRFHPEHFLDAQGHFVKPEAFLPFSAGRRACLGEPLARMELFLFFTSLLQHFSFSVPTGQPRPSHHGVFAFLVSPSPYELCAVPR
Chain of Tubulin (Sus scrofa) (P02550 whole entry, looked up): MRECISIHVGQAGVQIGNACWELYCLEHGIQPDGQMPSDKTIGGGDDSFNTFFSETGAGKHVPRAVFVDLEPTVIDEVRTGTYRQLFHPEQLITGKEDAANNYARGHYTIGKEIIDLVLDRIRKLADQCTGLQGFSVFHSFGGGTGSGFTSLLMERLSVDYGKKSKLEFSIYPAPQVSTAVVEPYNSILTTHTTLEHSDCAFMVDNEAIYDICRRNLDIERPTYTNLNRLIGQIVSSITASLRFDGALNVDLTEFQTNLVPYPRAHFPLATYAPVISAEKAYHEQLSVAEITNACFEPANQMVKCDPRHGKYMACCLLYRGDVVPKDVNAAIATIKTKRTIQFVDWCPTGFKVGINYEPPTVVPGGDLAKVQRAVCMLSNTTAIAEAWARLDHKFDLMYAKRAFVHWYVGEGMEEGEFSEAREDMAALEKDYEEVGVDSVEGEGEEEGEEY
Chain of Tubulin (Sus scrofa) (P02554 whole entry, looked up): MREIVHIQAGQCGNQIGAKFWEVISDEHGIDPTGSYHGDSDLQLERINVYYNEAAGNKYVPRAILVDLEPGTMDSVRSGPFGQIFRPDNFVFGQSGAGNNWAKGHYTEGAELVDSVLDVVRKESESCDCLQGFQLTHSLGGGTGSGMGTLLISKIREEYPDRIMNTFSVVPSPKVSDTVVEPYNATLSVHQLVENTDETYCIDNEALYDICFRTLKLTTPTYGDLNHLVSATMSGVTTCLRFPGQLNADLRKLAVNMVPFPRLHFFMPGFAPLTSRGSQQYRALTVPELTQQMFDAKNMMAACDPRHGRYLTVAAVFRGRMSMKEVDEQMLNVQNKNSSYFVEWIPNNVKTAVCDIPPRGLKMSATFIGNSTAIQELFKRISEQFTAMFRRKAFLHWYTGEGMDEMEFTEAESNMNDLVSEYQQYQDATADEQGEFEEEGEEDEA
Chain of CYP3A4 (P08684 whole entry): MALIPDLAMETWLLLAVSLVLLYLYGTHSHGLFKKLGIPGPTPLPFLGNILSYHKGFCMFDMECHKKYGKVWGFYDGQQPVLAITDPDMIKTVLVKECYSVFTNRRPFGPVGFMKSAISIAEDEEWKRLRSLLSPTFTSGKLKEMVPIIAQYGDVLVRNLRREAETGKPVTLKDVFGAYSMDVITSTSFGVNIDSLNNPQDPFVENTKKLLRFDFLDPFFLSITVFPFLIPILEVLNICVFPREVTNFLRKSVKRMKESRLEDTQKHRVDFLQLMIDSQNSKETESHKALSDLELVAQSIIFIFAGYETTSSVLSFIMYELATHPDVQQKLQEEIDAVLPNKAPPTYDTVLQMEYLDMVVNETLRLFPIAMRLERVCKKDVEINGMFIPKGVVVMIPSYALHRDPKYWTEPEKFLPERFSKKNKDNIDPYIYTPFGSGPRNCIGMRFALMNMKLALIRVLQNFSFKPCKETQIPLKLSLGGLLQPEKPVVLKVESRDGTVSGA

## COc1cc(C(=O)/C=C/c2ccc(F)cc2)cc(OC)c1OC
[1]
  Activity: 33%
[2]
  fraction unbound at 10 µM: 0.01
[3]
  Activity: Non-toxic
Mus musculus [4]
  Activity: Non-toxic
Mus musculus [5]
  Activity: Non-toxic
CYP3A4
  inhibition at 10 µM: 27.2%
Tubulin (Sus scrofa)
  inhibition: -0.8%
MCF7/6
  inhibition: inactive
[6]
  Survival: 34 days
Mus musculus [7]
  Activity: Non-toxic
[8]
  solubility at 200 µM: 7.9 µM (≈ 2.5 µg/mL)
[9]
  viability at 1 µM: 93.8%
[10]
  Activity: 20%
Mus musculus [11]
  Activity: 0.32 mg/dL
[12]
  Activity: Non-toxic
Mus musculus [13]
  Activity: 207.8 IU/L
[14]
  recovery at 10 µM: 66%
Mus musculus [15]
  Activity: Non-toxic
[16]
  recovery at 10 µM: 17%
CYP2D6
  inhibition at 10 µM: 18.9%
CYP1A2
  inhibition at 10 µM: 35.7%
MDA-MB-231
  Activity: Non-toxic
Mus musculus [17]
  Activity: 0.28 mg/dL
[18]
  EC50: 10 µM
[19]
  Activity: 2%
[20]
  Papp B→A at 10 µM: 4.9 ×10⁻⁶ cm/s
[21]
  microsomal CLint at 0.1 µM: 339 µL/min/mg
Mus musculus [22]
  Activity: 4400 µL⁻¹
SK-OV-3 [23]
  Activity: 12%
SK-OV-3 [24]
  Activity: 85%
hERG
  inhibition at 0.1 µM: 3.7%
Homo sapiens
  inhibition: -5.1%

Reference: ChEMBL document CHEMBL3611997, “4-Fluoro-3',4',5'-trimethoxychalcone as a new anti-invasive agent. From discovery to initial validation in an in vivo metastasis model” (Eur J Med Chem, 2015)
